Assay results from patent US6727266B2, “Substituted tryptophan derivatives” (Shionogi & Co., Ltd., priority 2000, dated 2004).

Experiments:
[1] = target: T1, MMP-9 (Homo sapiens, UniProt P14780); assay: Assay for inhibitory activities on MMP-9 (fluorogenic MOCAc peptide substrate); format: biochemical; details: MMP-9 purified from human fibrosarcoma HT1080 cells, activated by TPCK-Trypsin
T1 construct: made in house; host or cells: Endogenous secretion by human fibrosarcoma HT1080 cells (ATCC) treated with TPA; purified from the culture medium
From the text: MMP-9 was purified by using a combination of procedures described in the method descrived in Y. Okada et al. (Yasunori Okada, Yukio Gonoji, Katsumi Naka, Katsuro Tomita, Isao Nakanishi, Kazushi Iwata and Taro Hayakawa: Matrix metalloproteinase 9 (92-kDa gelatinase/type IV collagenase) from HT1080 human fibrosarcoma cells. Purification and activation of the precursor and enzymic properties. J. Biol. Chem., 267 (1992) 21712-21719 and the other method (1) Yasunori Okada, Tatsuhisa Morodomi, Jan J, Enghild, Ko Suzuki, Atsushi Yasui, Isao Nakanishi, Guy Salvesen and Hideaki Nagase: Matrix metalloproteinase 2 from human rheumatoid synovial fibroblasts. Purification and activation of the precursor and enzymic properties. Eur. J. Biochem. 194 (1990) 721-730 or (2) Robin V Ward, Rosalind M Hembry, John J Reynolds and Gillian Murphy: The purification of tissue inhibitor of metalloproteinase-2 from its 72 kDa progelatinase complex. Biochem. J. 278 (1991) 179-187. Briefly, human fibrosarcoma ATCC HT1080 cell line was cultured to confluent in Dulbecco's Modified Medium (DMEM) containing 10% fetal-calf serum (FCS) at 37° C. for 48 hours (5%). Further, Confluent Cell was cultured in DMEM removed FCS (2nd). To obtain MMP-9, Phorbol-12-myristate-13-acetate (TPA) was added to this DMEM medium at a concentration of 50 ng/ml. The TPA treated medium was centrifuged at 3000 rpm for 15 min and the supernatant was concentrated to 450 ml by a Toyo-Roshi UP-20 apparatus with an ultrafiltration membrane. Then, this concentrated solution was purified by Gelatin-Sepharose and Concanavalin A-Sepharose. The pool containing MMP-9 was dialyzed, concentrated (Toyo-Roshi UP-20) and applied to columns of Sephacryl S-200 and Green A matrix for the separation from TIMP. The obtained Procollagenase was activated by TPCK-Trypsin (final conc. 3 μg/μl reaction mix.) for the assay.
(§1) The enzymatic activity on each MMP was analyzed by the method described in “C Graham Knight, Frances Willenbrock and Gillian Murphy: A novel coumarin-labelled peptide for sensitive continuous assays of the matrix metalloproteinases: FEBS LETT., 296, (1992), 263-266”. The substrate: MOCAc-Pro-Leu-Gly-Leu-A2Pr(DNP)-Ala-Arg-NH2 was purchased from Peptide Institute, Inc., Osaka, Japan.
(§2) The measurement of the inhibitory activities of a compound (inhibitor) was carried out by the following four methods;
(§3) A) Reaction with substrate, enzyme (MMPs) and inhibitor
(§4) B) Reaction with substrate and inhibitor, without enzyme
(§5) C) Reaction with substrate and enzyme (MMPs), without inhibitor
(§6) D) Reaction with substrate only
(§7) Each fluorescence values of above four methods was measured and % inhibition was calculated by using the following formula.
(§8) % inhibition={1−(A−B)/(C−D)}×100
(§9) IC50 means the concentration required to inhibit 50% of the enzyme activity.

[2] = target: T2, MMP-2 (Homo sapiens, UniProt P08253); assay: Assay for inhibitory activities on MMP-2 (fluorogenic MOCAc peptide substrate); format: biochemical; details: MMP-2 purchased from Calbiochem-Novabiochem
T2 construct: purchased Calbiochem-Novabiochem International, Inc
T2 sequence (P08253 110-660): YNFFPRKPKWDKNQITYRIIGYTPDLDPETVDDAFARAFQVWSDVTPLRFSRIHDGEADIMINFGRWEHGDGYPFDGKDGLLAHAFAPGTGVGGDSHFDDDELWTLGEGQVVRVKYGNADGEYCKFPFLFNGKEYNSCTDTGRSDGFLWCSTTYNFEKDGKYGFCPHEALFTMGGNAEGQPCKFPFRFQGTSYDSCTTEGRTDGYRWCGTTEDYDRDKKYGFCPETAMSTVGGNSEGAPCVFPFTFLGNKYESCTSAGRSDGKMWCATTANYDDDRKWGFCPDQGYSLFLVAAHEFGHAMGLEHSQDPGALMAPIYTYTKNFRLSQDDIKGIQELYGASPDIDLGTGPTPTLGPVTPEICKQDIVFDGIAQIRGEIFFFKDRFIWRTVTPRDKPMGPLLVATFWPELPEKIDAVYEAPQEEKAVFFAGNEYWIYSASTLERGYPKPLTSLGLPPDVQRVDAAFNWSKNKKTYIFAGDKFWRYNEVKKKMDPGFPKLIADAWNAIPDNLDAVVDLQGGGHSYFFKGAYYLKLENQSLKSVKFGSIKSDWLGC
Procedure: MMP-2 was purchased from Calbiochem-Novabiochem International, Inc.
as §1, §2, §3, §4, §5, §6, §7, §8, §9

T1 sequence (P14780 107-707 limits assumed): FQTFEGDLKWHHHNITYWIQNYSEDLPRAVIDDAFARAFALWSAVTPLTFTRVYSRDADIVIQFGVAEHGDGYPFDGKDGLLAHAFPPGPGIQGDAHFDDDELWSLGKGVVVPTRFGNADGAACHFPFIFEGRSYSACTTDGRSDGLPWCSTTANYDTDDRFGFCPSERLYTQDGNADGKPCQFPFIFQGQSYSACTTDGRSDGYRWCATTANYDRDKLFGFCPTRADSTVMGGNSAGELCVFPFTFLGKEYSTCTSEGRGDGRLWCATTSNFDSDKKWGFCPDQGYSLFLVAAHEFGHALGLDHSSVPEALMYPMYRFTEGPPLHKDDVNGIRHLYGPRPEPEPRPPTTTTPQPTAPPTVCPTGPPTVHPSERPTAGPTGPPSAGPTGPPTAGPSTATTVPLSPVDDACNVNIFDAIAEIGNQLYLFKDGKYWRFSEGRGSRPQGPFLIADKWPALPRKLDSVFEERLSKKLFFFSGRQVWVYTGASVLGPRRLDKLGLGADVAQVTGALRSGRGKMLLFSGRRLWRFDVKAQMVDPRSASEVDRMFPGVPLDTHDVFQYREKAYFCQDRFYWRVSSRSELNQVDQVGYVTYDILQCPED

Compound	IC50 [1]	IC50 [2]	melting point
COc1ccc2[nH]cc(C[C@@H](NS(=O)(=O)c3ccc(C#Cc4ccc(C)cc4)s3)C(=O)O)c2c1 [Compound A-2]	15.6 nM	10.6 nM	
O=C(O)[C@H](Cc1c[nH]c2ccc(F)cc12)NS(=O)(=O)c1ccc(-c2nnn(-c3ccccc3)n2)cc1 [Compound A-12]	1420 nM	85.8 nM	
Cc1ccc(C#Cc2ccc(S(=O)(=O)N[C@H](Cc3c[nH]c4cccc(O)c34)C(=O)O)s2)cc1 [Compound A-4]	24.3 nM	0.768 nM	
O=C(O)[C@H](Cc1c[nH]c2ccc(F)cc12)NS(=O)(=O)c1ccc(-c2ccc(N3CCCC3)cc2)s1 [Compound A-10]	12 nM	4.04 nM	
Cc1ccc(C#Cc2ccc(S(=O)(=O)N[C@H](Cc3c[nH]c4c(O)cccc34)C(=O)O)s2)cc1 [Compound A-5]	6.49 nM	1.21 nM	
COc1ccc2[nH]cc(C[C@@H](NS(=O)(=O)c3ccc(-c4ccc(N(C)C)cc4)s3)C(=O)O)c2c1 [Compound A-8]	6.66 nM	0.617 nM	
Cc1ccc(C#Cc2ccc(S(=O)(=O)N[C@H](Cc3c[nH]c4ccc(O)cc34)C(=O)O)s2)cc1 [Compound A-1]	2.44 nM	0.223 nM	200 to 202 °C (dec.)
O=C(O)[C@@H](Cc1c[nH]c2ccc(F)cc12)NS(=O)(=O)c1ccc(-c2ccc(N3CCCC3)cc2)s1 [Compound A-9]	0.534 nM	0.137 nM	
COc1ccc(-n2nnc(-c3ccc(S(=O)(=O)N[C@H](Cc4c[nH]c5ccc(OC)cc45)C(=O)O)cc3)n2)cc1 [Compound A-11]	16 nM	5.77 nM	
COc1cccc2[nH]cc(C[C@@H](NS(=O)(=O)c3ccc(C#Cc4ccc(C)cc4)s3)C(=O)O)c12 [Compound A-3]	174 nM	22.8 nM	
Cc1ccc(C#Cc2ccc(S(=O)(=O)N[C@@H](Cc3c[nH]c4ccc(F)cc34)C(=O)O)s2)cc1 [Compound A-6]	848 nM	90.8 nM	
